Data on twelve molecules can be found in ChEMBL document CHEMBL1201862, “PubChem BioAssay data set” (2004).

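All cell lines were grown in 96-well plates and treated with compound for 48 hours. The concentration for 50% growth inhibition is given as GI50.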 Calls of active or inactive are those of the source. No stated cut-off is given here; in the data, active = GI50 up to about 1.1 µM and inactive = higher.

Among the test systems are A549; LOX IMVI; Malme-3M; K562; SK-OV-3; SN12C; UACC-257; RXF 393; SW-620; KM-20L2; OVCAR-4; NCI-H522; NCI-H226; HOP-62; NCI/ADR-RES; OVCAR-5; ACHN; BT-549; MDA-MB-435; TK-10.
What all share (assay): DTP human tumour cell line panel, 48 h

What is called GI50 is the concentration giving 50% growth inhibition. For `CNC(=O)SCC(N)C(=O)O` (stereo unspecified), the GI50 in the experiment on A549 was > 100 µM (inactive); in the experiment with LOX IMVI, 42.2 µM (inactive); in the experiment with Malme-3M, > 100 µM (inactive); with K562 it was 30.6 µM (inactive); in the experiment with SK-OV-3 it was > 100 µM (inactive); with SN12C it was > 95.9 µM (inactive). For the same molecule, the GI50 with UACC-257 was > 100 µM (inactive); in the experiment with RXF 393, > 100 µM (inactive); in the experiment with SW-620, > 85.9 µM (inactive); with KM-20L2, > 100 µM (inactive); in the experiment on OVCAR-4, > 100 µM (inactive); with NCI-H522 it was > 67.9 µM (inactive). Also, the GI50 in the experiment on NCI-H226 was > 84.7 µM (inactive); with HOP-62, > 100 µM (inactive); in the experiment on NCI/ADR-RES it was > 100 µM (inactive); with OVCAR-5 it was > 100 µM (inactive).

In the case of `NC(CCP(=O)(O)CCC1C=CC=CC1)C(=O)O` (stereo unspecified), the GI50 in the experiment on A549, in the experiment with LOX IMVI, in the experiment with ACHN, in the experiment with K562, with SK-OV-3 and in the experiment on SN12C was > 100 µM (inactive) throughout. In addition, the GI50 in the experiment on UACC-257, in the experiment with RXF 393, in the experiment on SW-620, with BT-549, in the experiment with OVCAR-4 and with MDA-MB-435 was > 100 µM (inactive) each time. For the same molecule, the GI50 in the experiment with NCI-H522 was 20.7 µM (inactive); with TK-10 it was > 100 µM (inactive); in the experiment on NCI/ADR-RES, > 100 µM (inactive); in the experiment on OVCAR-5 it was > 100 µM (inactive).

Consider `Nc1cccc2c1C1=NNC(=O)CC1C2` (stereo unspecified), for which the GI50 in the experiment on A549, in the experiment on LOX IMVI, in the experiment on Malme-3M, in the experiment with K562, in the experiment on SK-OV-3 and in the experiment on SN12C was > 100 µM (inactive) in each case. Besides, the GI50 in the experiment with UACC-257, in the experiment with RXF 393, in the experiment on SW-620, with KM-20L2, with OVCAR-4 and in the experiment on NCI-H522 was > 100 µM (inactive) throughout. Also, the GI50 in the experiment on NCI-H226 was > 100 µM (inactive); in the experiment on HOP-62, > 66.5 µM (inactive); with NCI/ADR-RES, > 100 µM (inactive); with OVCAR-5, > 100 µM (inactive).

On to `COc1cc(-c2cc(=O)c3c(O)c(CC=C(C)C)c(O)cc3o2)ccc1O`, for which the GI50 is 26 µM (inactive) in the experiment with A549; 19.1 µM (inactive) in the experiment on LOX IMVI; 19.1 µM (inactive) with ACHN; 13.5 µM (inactive) in the experiment with Malme-3M; 16.7 µM (inactive) with K562; 32.3 µM (inactive) in the experiment on SK-OV-3. The GI50 with SN12C is > 50 µM (inactive); in the experiment on UACC-257 it was > 50 µM (inactive); in the experiment on RXF 393, 24.4 µM (inactive); in the experiment on SW-620, 16.7 µM (inactive); with BT-549 it was 21.6 µM (inactive); in the experiment with OVCAR-4, 15.8 µM (inactive). In addition, the GI50 in the experiment on MDA-MB-435 was 9.1 µM (inactive); in the experiment with NCI-H226 it was > 50 µM (inactive); in the experiment on TK-10, 23.4 µM (inactive); in the experiment with HOP-62, 24.2 µM (inactive); with NCI/ADR-RES, 16 µM (inactive); with OVCAR-5, > 50 µM (inactive).

On to `O=C(Nc1ccccc1F)c1c(O)nc2sccn2c1=O`, for which the GI50 in the experiment on A549, in the experiment on LOX IMVI, in the experiment with ACHN, with Malme-3M, in the experiment on SK-OV-3 and in the experiment with SN12C was > 10 µM (inactive) each time. The GI50 with RXF 393, in the experiment on SW-620, with OVCAR-4, with MDA-MB-435, in the experiment on NCI-H522 and with NCI-H226 was > 10 µM (inactive) in each case. In addition, the GI50 with TK-10, with HOP-62, with NCI/ADR-RES and in the experiment with OVCAR-5 was > 10 µM (inactive) throughout.

Turning to `O=C(c1ccccc1)c1ccc2n[se]nc2c1`, the GI50 with A549 was 34.8 µM (inactive); in the experiment with LOX IMVI it was 29.4 µM (inactive); in the experiment on ACHN, 7.03 µM (inactive); in the experiment on Malme-3M, > 100 µM (inactive); in the experiment on K562, 4.29 µM (inactive); in the experiment with SK-OV-3, 35.1 µM (inactive). The GI50 in the experiment with SN12C was 54.7 µM (inactive); in the experiment on UACC-257, > 100 µM (inactive); in the experiment on RXF 393, 40.9 µM (inactive); in the experiment with SW-620 it was 10.3 µM (inactive); in the experiment with KM-20L2, 31.4 µM (inactive); with OVCAR-4 it was 39.4 µM (inactive). In addition, the GI50 was 25.2 µM (inactive) with NCI-H522, > 100 µM (inactive) in the experiment on TK-10 and 36.5 µM (inactive) in the experiment with OVCAR-5.

Take `C[C@]12CC[C@@H]3c4ccc(OCCN5CCCC5)cc4CC[C@H]3[C@@H]1CCC2=O`: the GI50 is 23.6 µM (inactive) in the experiment with A549; 7.38 µM (inactive) with LOX IMVI; 62.7 µM (inactive) with ACHN; 25.4 µM (inactive) in the experiment with K562; 48.6 µM (inactive) in the experiment with SK-OV-3; 27 µM (inactive) with UACC-257. The GI50 in the experiment on RXF 393 is 25.5 µM (inactive); in the experiment on SW-620, 41 µM (inactive); with OVCAR-4, 21.5 µM (inactive); in the experiment on MDA-MB-435, 42.7 µM (inactive); with NCI-H226, 19.6 µM (inactive); in the experiment with TK-10, 41 µM (inactive). Also, the GI50 was 18.6 µM (inactive) with HOP-62, 24.7 µM (inactive) with NCI/ADR-RES and 33.7 µM (inactive) in the experiment on OVCAR-5.

On to `COc1ccc(C2SCc3nc4ccccc4n32)cc1` (stereo unspecified), for which the GI50 with LOX IMVI is 5.78 µM (inactive); in the experiment on ACHN, 5.04 µM (inactive); with Malme-3M, 7.55 µM (inactive); in the experiment on K562 it was 2.34 µM (inactive); in the experiment with SK-OV-3, 3.5 µM (inactive); in the experiment on SN12C, 4.41 µM (inactive). Also, the GI50 in the experiment with SW-620 is 3.44 µM (inactive); in the experiment on KM-20L2, 2.4 µM (inactive); with NCI-H522 it was 0.986 µM (active); in the experiment on NCI-H226, 8.99 µM (inactive); with TK-10, 23.2 µM (inactive).

In the case of `Cn1c(=O)[nH]c2nncnc2c1=O`, the GI50 in the experiment on A549 was 80 µM (inactive); with LOX IMVI, 361 µM (inactive); with Malme-3M, 44.7 µM (inactive); in the experiment with K562, 211 µM (inactive); in the experiment on SK-OV-3, 146 µM (inactive); in the experiment on SN12C, 148 µM (inactive). Further, the GI50 in the experiment with UACC-257 is 75.3 µM (inactive); in the experiment on RXF 393 it was 19.3 µM (inactive); with SW-620, 75 µM (inactive); in the experiment with KM-20L2 it was 55.2 µM (inactive); in the experiment with OVCAR-4, 85.5 µM (inactive); in the experiment on NCI-H522 it was 157 µM (inactive). In addition, the GI50 with NCI-H226 is 5.83 µM (inactive); in the experiment with HOP-62, 34.4 µM (inactive); in the experiment on NCI/ADR-RES, 217 µM (inactive); in the experiment with OVCAR-5, 186 µM (inactive).

As to `CCOC(=O)CCC(NC(=O)OCc1ccccc1)C(=O)NC(CCC(=O)OCC)C(=O)NNC(=O)OC(C)(C)C` (stereo unspecified), the GI50 was > 100 µM (inactive) in the experiment on Malme-3M; > 100 µM (inactive) with K562; > 100 µM (inactive) in the experiment on SK-OV-3; > 100 µM (inactive) in the experiment on SN12C; 18.7 µM (inactive) with RXF 393; > 100 µM (inactive) in the experiment with BT-549. For the same molecule, the GI50 in the experiment with MDA-MB-435 is > 100 µM (inactive); in the experiment on NCI-H522 it was > 100 µM (inactive); with NCI-H226 it was 36.6 µM (inactive); in the experiment on HOP-62, > 100 µM (inactive); in the experiment on NCI/ADR-RES, > 100 µM (inactive); in the experiment on OVCAR-5, > 100 µM (inactive).

As to `CCOC(=O)CSc1nc(N)c2c(-c3ccc(OC)c(OC)c3)c3c(nc2n1)CCCC3`, the GI50 in the experiment with A549 was > 100 µM (inactive); in the experiment on LOX IMVI, > 100 µM (inactive); in the experiment on ACHN, > 100 µM (inactive); with Malme-3M it was 88.1 µM (inactive); in the experiment on K562, > 100 µM (inactive); in the experiment with SK-OV-3, 26.9 µM (inactive). Moreover, the GI50 with SN12C is > 100 µM (inactive); in the experiment with UACC-257, > 100 µM (inactive); in the experiment on RXF 393 it was 49.2 µM (inactive); with SW-620 it was > 100 µM (inactive); in the experiment with BT-549, 61.9 µM (inactive); in the experiment on OVCAR-4, 34.4 µM (inactive). The GI50 in the experiment on MDA-MB-435 is > 100 µM (inactive); in the experiment with TK-10 it was > 100 µM (inactive); with HOP-62, 39 µM (inactive); with NCI/ADR-RES, 60.3 µM (inactive); in the experiment with OVCAR-5, > 100 µM (inactive).

`O=C1c2cccc3cc4ccccc4c(c23)C(=O)N1CCNCCNCCNCCN1C(=O)c2cccc3cc4ccccc4c(c23)C1=O`: the GI50 in the experiment with A549 was < 0.01 µM (active); with LOX IMVI it was < 0.01 µM (active); in the experiment on Malme-3M, 0.126 µM (active); in the experiment with K562, < 0.01 µM (active); in the experiment on SN12C it was < 0.027 µM (active); in the experiment with UACC-257, 0.201 µM (active). Further, the GI50 in the experiment with RXF 393 was < 0.01 µM (active); in the experiment with SW-620, < 0.01 µM (active); in the experiment on KM-20L2 it was < 0.0139 µM (active); with OVCAR-4, < 0.01 µM (active); with NCI-H226, 33.6 µM (inactive); in the experiment on NCI/ADR-RES it was < 0.0136 µM (active). In addition, in the experiment on OVCAR-5, the GI50 was 0.158 µM (active).
